Values of other authors, collected in paper PMC6311893, “Computational prediction of plasma protein binding of cyclic peptides from small molecule experimental data using sparse modeling techniques” (BMC Bioinformatics, 2018).

Test system: plasma protein
Conditions: fraction bound to plasma protein; small molecule dataset, sheet 1-SM (Set Dte = test, Dtr = training); ref Ingle et al.; cited from earlier work
In the case of `CCN1CCCC1CNC(=O)c1cc(S(N)(=O)=O)ccc1OC` (stereo not shown) [sulpiride], the “PPB (fb)” value is listed as 0.25.
In the case of `CC(C)(C)NCC(O)COc1cccc2c1SCCC2` (stereo not shown) [tertatolol], the “PPB (fb)” value is listed as 0.95.
In the case of `Cn1cc[nH]c1=S` [thiamazole], the “PPB (fb)” value is given as 0.
For `NC(Cc1cc(I)c(Oc2cc(I)c(O)c(I)c2)c(I)c1)C(=O)O` (stereo not shown) [thyroxine], the “PPB (fb)” value is given as 0.99.
For `CCOC(=O)[C@H](CCc1ccccc1)N[C@@H](C)C(=O)N1[C@H](C(=O)O)C[C@H]2CCCC[C@@H]21` [trandolapril], the “PPB (fb)” value is listed as 0.84.
In the case of `CC(c1cc2ccccc2s1)N(O)C(N)=O` (stereo not shown) [zileuton], the “PPB (fb)” value is given as 0.93.
In the case of `CN(C)C/C=C(/c1ccc(Br)cc1)c1cccnc1` [zimeldine], the “PPB (fb)” value is listed as 0.9.
In the case of `Cc1cc(CC(=O)O)n(C)c1C(=O)c1ccc(Cl)cc1` [zomepirac], the “PPB (fb)” value is listed as 0.98.

Same assay, conditions: fraction bound to plasma protein; small molecule dataset, sheet 1-SM, Set Dtr; ref Ingle et al.; cited from earlier work
For `Cc1ccc(S(=O)(=O)NC(=O)NN2CCCCCC2)cc1` [tolazamide], the “PPB (fb)” value is listed as 0.97.
For `c1ccc(CC2=NCCN2)cc1` [tolazoline], the “PPB (fb)” value is listed as 0.23.
For `Cc1c(Cl)cccc1Nc1ccccc1C(=O)O` [tolfenamic acid], the “PPB (fb)” value is given as 0.99.
In the case of `Cc1ccc(C(=O)c2ccc(CC(=O)O)n2C)cc1` [tolmetin], the “PPB (fb)” value is given as 0.99.
For `COc1ccc2c(C(=S)N(C)CC(=O)O)cccc2c1C(F)(F)F` [tolrestat], the “PPB (fb)” value is listed as 0.99.
For `CC1(C)O[C@@H]2[C@@H](CO[C@@]3(COS(N)(=O)=O)OC(C)(C)O[C@@H]23)O1` [topiramate], the “PPB (fb)” value is given as 0.15.
In the case of `CN(C)CCOc1ccc(/C(=C(/CCCl)c2ccccc2)c2ccccc2)cc1` [toremifene], the “PPB (fb)” value is given as 0.99.
In the case of `C[C@H](N[C@@H](CCc1ccccc1)C(=O)O)C(=O)N1[C@H](C(=O)O)C[C@H]2CCCC[C@@H]21` [trandolaprilat], the “PPB (fb)” value is listed as 0.94.
For `NC[C@H]1CC[C@H](C(=O)O)CC1` [tranexamic acid], the “PPB (fb)” value is listed as 0.03.
In the case of `O=c1n(CCCN2CCN(c3cccc(Cl)c3)CC2)nc2ccccn12` [trazodone], the “PPB (fb)” value is listed as 0.92.
In the case of `CN1CCN(CCCN2c3ccccc3Sc3ccc(C(F)(F)F)cc32)CC1` [trifluoperazine], the “PPB (fb)” value is listed as 0.99.
For `CC(CN(C)C)CN1c2ccccc2Sc2ccccc21` (stereo not shown) [trimeprazine], the “PPB (fb)” value is listed as 0.85.
In the case of `CN1C(=O)OC(C)(C)C1=O` [trimethadione], the “PPB (fb)” value is listed as 0.
In the case of `Cc1ccc(/C(=C\CN2CCCC2)c2ccccn2)cc1` [triprolidine], the “PPB (fb)” value is given as 0.9.
For `Cc1c(C)c2c(c(C)c1O)CCC(C)(COc1ccc(CC3SC(=O)NC3=O)cc1)O2` (stereo not shown) [troglitazone], the “PPB (fb)” value is listed as 0.99.
In the case of `CN1[C@@H]2CC[C@H]1C[C@@H](OC(=O)c1c[nH]c3ccccc13)C2` [tropisetron], the “PPB (fb)” value is given as 0.7.
For `COc1ccccc1N1CCN(CCCNc2cc(=O)n(C)c(=O)n2C)CC1` [urapidil], the “PPB (fb)” value is listed as 0.8.
For `C[C@H](CCC(=O)O)[C@H]1CC[C@H]2[C@@H]3[C@@H](O)C[C@@H]4C[C@H](O)CC[C@]4(C)[C@H]3CC[C@]12C` [ursodiol], the “PPB (fb)” value is given as 0.97.
In the case of `CC(C)[C@H](N)C(=O)OCCOCn1cnc2c(=O)[nH]c(N)nc21` [valacyclovir], the “PPB (fb)” value is listed as 0.18.
For `Cc1onc(-c2ccccc2)c1-c1ccc(S(N)(=O)=O)cc1` [valdecoxib], the “PPB (fb)” value is given as 0.98.
In the case of `C=CC(N)CCC(=O)O` (stereo not shown) [vigabatrin], the “PPB (fb)” value is given as 0.
In the case of `CC1=C(C/C=C(\C)CCCC(C)CCCC(C)CCCC(C)C)C(=O)c2ccccc2C1=O` (stereo not shown) [vitamin-K], the “PPB (fb)” value is given as 0.9.
For `OCC(CO)N[C@H]1C[C@](O)(CO)[C@@H](O)[C@H](O)[C@H]1O` [voglibose], the “PPB (fb)” value is given as 0.14.
For `Cc1cccc(C)c1NC(=O)c1cc(S(N)(=O)=O)c(Cl)cc1O` [xipamide], the “PPB (fb)” value is listed as 0.99.
For `COc1cc(C(=O)NS(=O)(=O)c2ccccc2C)ccc1Cc1cn(C)c2ccc(NC(=O)OC3CCCC3)cc12` [zafirlukast], the “PPB (fb)” value is given as 0.99.
In the case of `Nc1ccn([C@H]2CC[C@@H](CO)O2)c(=O)n1` [zalcitabine], the “PPB (fb)” value is given as 0.03.
For `N=C(N)NC(=O)c1cnn(-c2cccc3ncccc23)c1C1CC1` [zoniporide], the “PPB (fb)” value is listed as 0.5.

Same assay, conditions: fraction bound to plasma protein; small molecule dataset, sheet 1-SM; ref Ingle et al.; cited from earlier work
In the case of `CC1=C(CC(=O)O)c2cc(F)ccc2/C1=C\c1ccc([S+](C)[O-])cc1` (stereo not shown) [sulindac], the “PPB (fb)” value is given as 0.93.
In the case of `CN1CC(=O)N2[C@H](c3ccc4c(c3)OCO4)c3[nH]c4ccccc4c3C[C@@H]2C1=O` [tadalafil], the “PPB (fb)” value is listed as 0.94.
In the case of `CC/C(=C(\c1ccccc1)c1ccc(OCCN(C)C)cc1)c1ccccc1` [tamoxifen], the “PPB (fb)” value is listed as 0.99.
In the case of `O=C1[C@@H]2[C@H]3CC[C@H](C3)[C@@H]2C(=O)N1CCCCN1CCN(c2ncccn2)CC1` [tandospirone], the “PPB (fb)” value is given as 0.3.
In the case of `C[C@]1(Cn2ccnn2)[C@H](C(=O)O)N2C(=O)C[C@H]2S1(=O)=O` [tazobactam], the “PPB (fb)” value is listed as 0.23.
In the case of `C#CCCCC(=O)c1cc(C(C)(C)C)c(O)c(C(C)(C)C)c1` [tebufelone], the “PPB (fb)” value is given as 0.99.
In the case of `Cn1nnc2c(C(N)=O)ncn2c1=O` [temozolomide], the “PPB (fb)” value is listed as 0.15.
In the case of `CC(C)OC(=O)OCOP(=O)(CO[C@H](C)Cn1cnc2c(N)ncnc21)OCOC(=O)OC(C)C` [tenofovir disoproxil], the “PPB (fb)” value is given as 0.07.
For `CN(C/C=C/C#CC(C)(C)C)Cc1cccc2ccccc12` [terbinafine], the “PPB (fb)” value is listed as 0.99.
For `CC(C)(C)c1ccc(C(O)CCCN2CCC(C(O)(c3ccccc3)c3ccccc3)CC2)cc1` (stereo not shown) [terfenadine], the “PPB (fb)” value is listed as 0.84.
In the case of `COc1cc2c(cc1OC)C1CC(=O)C(CC(C)C)CN1CC2` (stereo not shown) [tetrabenazine], the “PPB (fb)” value is listed as 0.85.
For `CCCCNc1ccc(C(=O)OCCN(C)C)cc1` [tetracaine], the “PPB (fb)” value is given as 0.85.
In the case of `Cc1nc(C)c(C)nc1C` [tetramethylpyrazine phosphate], the “PPB (fb)” value is given as 0.56.
For `COCCOc1c(OC)cc(Cc2cnc(N)nc2N)cc1OC` [tetroxoprim], the “PPB (fb)” value is listed as 0.15.
For `CSc1ccc2c(c1)N(CCC1CCCCN1C)c1ccccc1S2` (stereo not shown) [thioridazine], the “PPB (fb)” value is listed as 0.98.
In the case of `CCN(CC)CCNC(=O)c1cc(S(C)(=O)=O)ccc1OC` [tiapride], the “PPB (fb)” value is given as 0.
For `CC(C(=O)O)c1ccc(C(=O)c2ccccc2)s1` (stereo not shown) [tiaprofenic acid], the “PPB (fb)” value is given as 0.98.
For `C#C[C@]1(O)CC[C@H]2[C@@H]3[C@H](C)CC4=C(CCC(=O)C4)[C@H]3CC[C@@]21C` [tibolone], the “PPB (fb)” value is given as 0.96.
For `Clc1ccccc1CN1CCc2sccc2C1` [ticlopidine], the “PPB (fb)” value is given as 0.96.
For `O=C(O)COc1ccc(C(=O)c2cccs2)c(Cl)c1Cl` [tienilic acid], the “PPB (fb)” value is given as 0.99.
In the case of `O=P(O)(O)C(Sc1ccc(Cl)cc1)P(=O)(O)O` [tiludronic acid], the “PPB (fb)” value is listed as 0.9.

Same assay, conditions: plasma; cited from earlier work
In the case of `O=C1OC(c2ccc(O)c(S(=O)(=O)O)c2)(c2ccc(O)c(S(=O)(=O)O)c2)c2c(Br)c(Br)c(Br)c(Br)c21` [sulfobromophthalein], the “PPB (fb)” value is listed as 0.99.
For `CN1C(=O)CN=C(C2=CCCCC2)c2cc(Cl)ccc21` [tetrazepam], the “PPB (fb)” value is given as 0.7.
